Nine compounds from PubChem BioAssay (NCI) can be followed below.

SMILES strings stand for the structures.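 A five-concentration, 48-hour dose response in 96-well plates underlies each endpoint, interpolated linearly between surrounding concentrations. GI50: concentration for 50% inhibition of growth. TGI denotes the concentration required for complete inhibition of growth.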 Bounds are passed on as bounds.

Experiment in all cases: NCI anticancer screen, dose series, 48 h
The test system of assay [1] is 786-0 renal.
In assay [2] the test system is ACHN renal.
In assay [3] the test system is HCT-116 colon.
For assay [4], the system named is HT29 colon.
In assay [5] the test system is KM12 colon.
Assay [6] relates to SF-268 CNS.
Assay [7] deals with SK-MEL-2 melanoma.
For assay [8], the system named is SNB-75 CNS.
The subject of assay [9] is SR leukemia.
Assay [10] has as its system UO-31 renal.

Turning to `O=C(O)CCSCCCN1C(=O)c2ccccc2C1=O`, the TGI in assay [1], in [2], in [3], in assay [4], in [5] and in [6] was over 100 µM in each case. The TGI in assay [7], in assay [8], in assay [9] and in assay [10] was over 100 µM each time.

Regarding `O=c1c2cccc3cccc(c4oc5c6cccc7cccc(c(=O)c5c14)c76)c32`, the TGI in assay [1] came to 15.8 µM; in assay [2], 16.3 µM; in assay [3] it was 17 µM; in [4] it was 19.6 µM; in assay [5] it was 21.2 µM; in [6], 19.6 µM. Also, the TGI in [7] was found to be 23.3 µM; in assay [8] it was 21.7 µM; in assay [9], 29.9 µM; in assay [10], 23.1 µM.

`CN1CCN(c2nc(NCCCCNc3ccnc4cc(Cl)ccc34)c3ccccc3n2)CC1`: the GI50 was 1.65 µM in assay [1]; 2.52 µM in [2]; 2.58 µM in assay [3]; 2 µM in assay [4]; 8.25 µM in assay [5]; 10.7 µM in assay [6]. The GI50 is 2.11 µM in assay [7], 2.16 µM in [8], 2.29 µM in assay [9] and 1.65 µM in assay [10]. The TGI in assay [1] was found to be 3.26 µM; in assay [2], 7.32 µM; in assay [3] it was 11.7 µM; in assay [4], 5.49 µM; in assay [5], 25.1 µM; in assay [6], 33.9 µM. The TGI came to 4.48 µM in assay [7], 10 µM in [8], 6.27 µM in assay [9] and 3.54 µM in [10].

`COc1cc(Cn2c(=S)ss/c2=N\C(=S)N(C)C)cc(OC)c1OC`: the TGI was over 91.3 µM in assay [1]; over 88.8 µM in [2]; over 70.7 µM in assay [3]; over 100 µM in assay [4]; 30.5 µM in assay [5]; over 75.7 µM in [6]. Besides, the TGI in [7] is over 100 µM; in assay [8], 53.9 µM; in [9], over 61.2 µM; in assay [10], over 100 µM.

`COc1ccc(C(=O)/C=C/c2c(C(F)(F)F)nc3sccn23)cc1OC`: the GI50 is 5.67 µM in assay [1]; 5.1 µM in [2]; 1.4 µM in assay [3]; 2.01 µM in assay [4]; 1.97 µM in [5]; 3.44 µM in assay [6]. The GI50 in assay [7] was 4.08 µM; in assay [8], 6.87 µM; in assay [9] it was 0.493 µM; in assay [10], 8.47 µM. Also, the TGI in [1] was over 100 µM; in [2], over 100 µM; in assay [3] it was 68.7 µM; in assay [4], over 100 µM; in assay [5], 11.1 µM; in assay [6] it was over 100 µM. In addition, the TGI is 92.5 µM in assay [7], over 100 µM in [8], over 100 µM in [9] and over 100 µM in assay [10].

Turning to `CN(CC(=O)O)c1ccc(/C=C/c2ccnc3ccccc23)cc1`, the TGI is over 100 µM in assay [1]; over 100 µM in [2]; 69.8 µM in [3]; 66.6 µM in assay [4]; 41.2 µM in assay [5]; 61.1 µM in assay [6]. In addition, the TGI in assay [7] was determined as 44.6 µM; in [8], 86.8 µM; in assay [9] it was 33.7 µM; in assay [10] it was 54 µM.

As to `COc1ccc(-c2cnnn2-c2cc(OC)c3c(c2)OCO3)cc1`, the GI50 in [1] was 0.544 µM; in [2], 0.891 µM; in [3] it was 0.0596 µM; in [4], 0.0454 µM; in [5], 0.0564 µM; in [6] it was 0.775 µM. The GI50 in assay [7] was 0.0955 µM; in assay [8], 0.0741 µM; in [9], 0.0466 µM; in [10], 1.1 µM. The TGI in assay [1] is over 36.6 µM; in assay [2], over 100 µM; in assay [3], over 42.3 µM; in assay [5] it was over 30.8 µM; in [6], over 100 µM; in assay [7] it was 90.4 µM. The TGI was over 100 µM in assay [8], over 51.7 µM in assay [9] and over 100 µM in [10].

Regarding `O=C1C=C[C@@]23C[C@@H](Nc4c(O)c5c6c(c42)=NCCC=6C=N5)SC3=C1`, the GI50 in assay [1] was 4.34 µM; in assay [2], 3.35 µM; in assay [6], 3.04 µM; in assay [7], 1.94 µM; in [8], 12 µM; in assay [9], 2.26 µM. For the same compound, the TGI in assay [1] came out at 14.6 µM; in [2], 9.16 µM; in [3], 4.03 µM; in [4], 7.39 µM; in [5] it was 18.5 µM; in assay [6], 10.1 µM. Moreover, the TGI in [7] came out at 4.03 µM; in assay [8], 25.3 µM; in assay [9], 6.14 µM; in assay [10], 22.8 µM.

Turning to `C=CC1=C[C@@H]2[C@@H]3O[C@]4(CC[C@H](O4)[C@@H](C)C[C@@H](O)C3=O)C[C@H](O)C3=NCC[C@@]32CC1`, the GI50 in assay [1], in assay [2], in [3], in assay [4], in assay [5] and in assay [6] was under 0.00333 µM in each case. Besides, the GI50 in [7], in assay [8], in assay [9] and in assay [10] was under 0.00333 µM in each case. Further, the TGI in [1] was 0.00341 µM; in assay [2], under 0.00333 µM; in assay [3] it was 0.00371 µM; in assay [5], 0.0061 µM; in [6], 0.00575 µM; in [7], 0.0117 µM. Also, the figures for the TGI in assay [8], in assay [9] and in [10] were under 0.00333 µM, over 33.3 µM and under 0.00333 µM, respectively.
